The target in one assay is T1, human CFTR (Homo sapiens, UniProt P13569).
T1 construct: expressed in transfected cells; host or cells: CHO-K1
Nature of the assay: YFP quenching assay in CHO-K1 cells expressing CFTR and halide sensor YFP. Format: cell-based. The note with it: isorhamnetin applied 10 min prior to I- addition. The method, then: CHO cells expressing wild-type CFTR with the halide sensor YFP-H148Q/I152L were plated in 96-well, black-walled microplates (Corning Inc., Corning, NY, USA) at a density of 2 × 10^4 cells per well. CHO-WT-CFTR-YFP cells were incubated for 48 h at 37 °C. Assays were done using FLUO star Omega microplate reader (BMG Labtech, Ortenberg, Germany) and MARS Data Analysis Software (BMG Labtech). Briefly, each well of a 96-well plate was washed three times in PBS (200 µL/wash). Then, 100 µL PBS was added to each well. Test compounds (1 µL) were added to each well at final concentration of 25 µM. After 10 min, 96-well plates were transferred to the microplate reader preheated to 37 °C for fluorescence assay. Each well was assayed individually for CFTR-mediated I^- influx by recording fluorescence continuously (400 ms per point) for 2 s (baseline). Then, 100 µL of 140 mM I^- solution were added at 2 s and then YFP fluorescence was recorded for 14 s. Initial iodide influx rate was determined from the initial slope of fluorescence decrease, by nonlinear regression, following infusion of iodide.

The subject of the next assay is intracellular cAMP. The assay can be described thus: cAMP assay in FRT cells. Format: cell-based, rat. Conditions: 30 µM. The method, then:
FRT cells grown on 96-well culture plates were washed three times with PBS at 37 °C and then incubated in induction buffer from a cAMP assay kit (cAMP-Glo Assay; Promega, Madison, WI, USA) at 37 °C containing 100 μM 3-isobutyl-1-methylxanthine (IBMX) for 10 min in the absence or presence of forskolin or isorhamnetin. Cytosolic cAMP was measured using the kit according to the manufacturer’s protocol.

The next assay concerns the target T2, human ANO1 (Homo sapiens, UniProt Q5XXA6).
T2 construct: expressed in transfected cells; host or cells: FRT cells (FRT-ANO1)
T2 sequence (Q5XXA6 1-986): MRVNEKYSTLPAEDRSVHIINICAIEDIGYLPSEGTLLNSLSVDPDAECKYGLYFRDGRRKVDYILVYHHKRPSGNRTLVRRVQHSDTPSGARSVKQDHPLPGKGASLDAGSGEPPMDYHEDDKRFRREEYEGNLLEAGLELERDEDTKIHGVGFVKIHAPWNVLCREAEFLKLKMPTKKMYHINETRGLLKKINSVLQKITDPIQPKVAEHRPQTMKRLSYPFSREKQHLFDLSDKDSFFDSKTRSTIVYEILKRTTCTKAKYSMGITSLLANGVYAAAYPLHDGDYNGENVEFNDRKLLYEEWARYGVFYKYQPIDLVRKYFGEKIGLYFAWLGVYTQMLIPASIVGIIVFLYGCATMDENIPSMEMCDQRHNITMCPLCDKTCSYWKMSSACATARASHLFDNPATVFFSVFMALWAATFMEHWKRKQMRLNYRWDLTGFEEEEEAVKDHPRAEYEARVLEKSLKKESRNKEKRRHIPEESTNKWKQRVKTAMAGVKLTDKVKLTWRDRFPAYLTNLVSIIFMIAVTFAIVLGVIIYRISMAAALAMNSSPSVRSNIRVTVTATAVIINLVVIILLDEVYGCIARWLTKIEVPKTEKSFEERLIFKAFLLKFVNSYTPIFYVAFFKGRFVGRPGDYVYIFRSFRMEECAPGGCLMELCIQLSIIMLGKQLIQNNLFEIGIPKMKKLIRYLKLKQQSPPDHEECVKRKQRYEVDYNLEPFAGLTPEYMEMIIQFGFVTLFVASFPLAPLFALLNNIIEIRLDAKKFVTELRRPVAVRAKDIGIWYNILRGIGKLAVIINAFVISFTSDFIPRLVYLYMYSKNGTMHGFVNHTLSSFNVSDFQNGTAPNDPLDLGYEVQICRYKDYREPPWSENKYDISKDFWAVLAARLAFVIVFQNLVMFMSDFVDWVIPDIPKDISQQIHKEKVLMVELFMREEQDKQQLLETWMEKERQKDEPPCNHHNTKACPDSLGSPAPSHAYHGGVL
Nature of the assay: Apical membrane current in FRT cells expressing human ANO1. Format: cell-based. The note with it: 30 μM added 10 min prior to ANO1 activation by 100 μM ATP.

A further assay has as its target T3, human ΔF508-CFTR (Homo sapiens, UniProt P13569, DEL508-508).
T3 construct: expressed in transfected cells; host or cells: FRT (Fisher rat thyroid) cells, provided by Dr. Alan Verkman; 27 °C for 24 h
The assay can be described thus: Apical membrane current in FRT cells expressing low-temperature-rescued ΔF508-CFTR. Format: cell-based. On the procedure:
(§1) Snapwell inserts containing CFTR-expressing FRT and T84 cells were mounted in Ussing chambers (Physiologic Instruments, San Diego, CA, USA). Forskolin, isorhamnetin, and CFTRinh-172 were added to the apical and basolateral bath solution. For FRT cells, the apical bath was filled with a half-Cl^− solution and the basolateral bath was filled with HCO^3--buffered solution to generate transepithelial Cl^− gradient (apical, 64 mM; basolateral, 129 mM), and the basolateral membrane was permeabilized with 250 µg/mL amphotericin B. For T84 cells, symmetrical HCO^3--buffered solutions were used, and ENaC was inhibited with amiloride (100 µM). All cells were bathed for a 20-min stabilization period and aerated with 95% O2/5% CO2 at 37 °C. Apical membrane current and short-circuit current were measured with an EVC4000 Multi-Channel V/I Clamp (World Precision Instruments, Sarasota, FL, USA) and recorded using PowerLab 4/35 (AD Instruments, Castle Hill, Australia). Data were collected and analyzed with ADInstruments acquisition software Labchart Pro 7 software. The sampling rate was 4 Hz.

The next assay deals with T4, CFTR (Mus musculus, UniProt P26361).
T4 construct: from tissue; host or cells: ocular surface of anesthetized CD-1 mice (in vivo)
T4 sequence (P26361 whole entry): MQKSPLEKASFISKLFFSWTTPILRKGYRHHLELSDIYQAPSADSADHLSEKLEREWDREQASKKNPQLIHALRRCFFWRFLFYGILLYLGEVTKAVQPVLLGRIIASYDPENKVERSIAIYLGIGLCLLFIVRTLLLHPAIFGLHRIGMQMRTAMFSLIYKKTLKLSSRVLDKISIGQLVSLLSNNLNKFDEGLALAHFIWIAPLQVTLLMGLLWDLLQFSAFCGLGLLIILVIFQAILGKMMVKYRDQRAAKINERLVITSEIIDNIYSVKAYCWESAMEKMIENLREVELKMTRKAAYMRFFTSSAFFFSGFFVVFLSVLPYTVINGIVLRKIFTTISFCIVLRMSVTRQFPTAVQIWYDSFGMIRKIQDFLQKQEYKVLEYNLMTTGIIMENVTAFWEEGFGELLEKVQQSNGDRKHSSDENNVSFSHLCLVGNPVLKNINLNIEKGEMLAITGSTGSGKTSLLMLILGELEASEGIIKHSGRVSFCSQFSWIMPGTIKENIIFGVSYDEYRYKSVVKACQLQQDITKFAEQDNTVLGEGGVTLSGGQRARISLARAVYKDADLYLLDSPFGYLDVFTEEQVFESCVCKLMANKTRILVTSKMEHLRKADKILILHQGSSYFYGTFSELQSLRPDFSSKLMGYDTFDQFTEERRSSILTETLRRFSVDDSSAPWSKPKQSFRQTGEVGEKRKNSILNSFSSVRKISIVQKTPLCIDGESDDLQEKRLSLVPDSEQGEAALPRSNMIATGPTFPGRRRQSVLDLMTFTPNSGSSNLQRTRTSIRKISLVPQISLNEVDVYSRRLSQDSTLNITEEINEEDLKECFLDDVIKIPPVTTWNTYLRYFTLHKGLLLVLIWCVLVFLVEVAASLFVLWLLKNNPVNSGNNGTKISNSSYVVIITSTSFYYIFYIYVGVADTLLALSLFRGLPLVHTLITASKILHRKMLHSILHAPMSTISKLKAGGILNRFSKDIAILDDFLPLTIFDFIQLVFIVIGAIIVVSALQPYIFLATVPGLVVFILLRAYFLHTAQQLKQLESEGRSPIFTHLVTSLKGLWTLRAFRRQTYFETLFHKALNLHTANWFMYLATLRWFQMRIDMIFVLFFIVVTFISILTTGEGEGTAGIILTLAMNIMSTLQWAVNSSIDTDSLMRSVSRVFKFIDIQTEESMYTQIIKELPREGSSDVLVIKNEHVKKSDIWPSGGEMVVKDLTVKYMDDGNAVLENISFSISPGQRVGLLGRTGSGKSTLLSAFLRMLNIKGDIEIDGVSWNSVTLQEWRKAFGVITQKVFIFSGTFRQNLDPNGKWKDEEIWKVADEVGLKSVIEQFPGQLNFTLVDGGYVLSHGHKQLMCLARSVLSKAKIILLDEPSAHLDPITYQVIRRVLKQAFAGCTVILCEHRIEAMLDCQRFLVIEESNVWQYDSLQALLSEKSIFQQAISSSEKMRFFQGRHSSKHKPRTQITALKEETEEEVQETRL
Nature of the assay: Open-circuit ocular surface potential difference (PD) in CD-1 mice. Format: in vivo. Conditions: 30 μM isorhamnetin, amiloride and low Cl- perfusion.

The next assay has as its system CD-1 mice. Nature of the assay: Tear volume by phenol red thread tear test in normal CD-1 mice. Format: in vivo, mouse. The note with it: single 2.5 μL ocular delivery, 30 µM isorhamnetin. The method, then: Tear volume was measured using phenol red threads (Zone-Quick, Oasis Medical, Glendora, CA, USA) by placing them in the lateral canthi of normal CD-1 or dry eye model-treated BL6 mice for 10 s using forceps. Tear volume was measured using a Vernier caliper as the length of thread wetting under a microscope. For normal CD-1 mice, serial measurements were done to evaluate compound pharmacodynamics compared to the vehicle after topical application of a single, 2.5-μL drop of compound formulations containing 20 μM forskolin, 30 μM isorhamnetin, or 20 μM CFTRinh-172 in PBS with 0.1% DMSO.

The target of the next assay is WT-CFTR (Homo sapiens, UniProt P13569). The assay can be described thus: Apical membrane current in WT-CFTR expressing FRT cells. Format: cell-based. On the set-up: expressed in transfected cells; host or cells: FRT (Fisher rat thyroid) cells, provided by Dr. Alan Verkman. The method, then:
as §1

T3 sequence (P13569 with tags, fused parts or gaps DEL508-508): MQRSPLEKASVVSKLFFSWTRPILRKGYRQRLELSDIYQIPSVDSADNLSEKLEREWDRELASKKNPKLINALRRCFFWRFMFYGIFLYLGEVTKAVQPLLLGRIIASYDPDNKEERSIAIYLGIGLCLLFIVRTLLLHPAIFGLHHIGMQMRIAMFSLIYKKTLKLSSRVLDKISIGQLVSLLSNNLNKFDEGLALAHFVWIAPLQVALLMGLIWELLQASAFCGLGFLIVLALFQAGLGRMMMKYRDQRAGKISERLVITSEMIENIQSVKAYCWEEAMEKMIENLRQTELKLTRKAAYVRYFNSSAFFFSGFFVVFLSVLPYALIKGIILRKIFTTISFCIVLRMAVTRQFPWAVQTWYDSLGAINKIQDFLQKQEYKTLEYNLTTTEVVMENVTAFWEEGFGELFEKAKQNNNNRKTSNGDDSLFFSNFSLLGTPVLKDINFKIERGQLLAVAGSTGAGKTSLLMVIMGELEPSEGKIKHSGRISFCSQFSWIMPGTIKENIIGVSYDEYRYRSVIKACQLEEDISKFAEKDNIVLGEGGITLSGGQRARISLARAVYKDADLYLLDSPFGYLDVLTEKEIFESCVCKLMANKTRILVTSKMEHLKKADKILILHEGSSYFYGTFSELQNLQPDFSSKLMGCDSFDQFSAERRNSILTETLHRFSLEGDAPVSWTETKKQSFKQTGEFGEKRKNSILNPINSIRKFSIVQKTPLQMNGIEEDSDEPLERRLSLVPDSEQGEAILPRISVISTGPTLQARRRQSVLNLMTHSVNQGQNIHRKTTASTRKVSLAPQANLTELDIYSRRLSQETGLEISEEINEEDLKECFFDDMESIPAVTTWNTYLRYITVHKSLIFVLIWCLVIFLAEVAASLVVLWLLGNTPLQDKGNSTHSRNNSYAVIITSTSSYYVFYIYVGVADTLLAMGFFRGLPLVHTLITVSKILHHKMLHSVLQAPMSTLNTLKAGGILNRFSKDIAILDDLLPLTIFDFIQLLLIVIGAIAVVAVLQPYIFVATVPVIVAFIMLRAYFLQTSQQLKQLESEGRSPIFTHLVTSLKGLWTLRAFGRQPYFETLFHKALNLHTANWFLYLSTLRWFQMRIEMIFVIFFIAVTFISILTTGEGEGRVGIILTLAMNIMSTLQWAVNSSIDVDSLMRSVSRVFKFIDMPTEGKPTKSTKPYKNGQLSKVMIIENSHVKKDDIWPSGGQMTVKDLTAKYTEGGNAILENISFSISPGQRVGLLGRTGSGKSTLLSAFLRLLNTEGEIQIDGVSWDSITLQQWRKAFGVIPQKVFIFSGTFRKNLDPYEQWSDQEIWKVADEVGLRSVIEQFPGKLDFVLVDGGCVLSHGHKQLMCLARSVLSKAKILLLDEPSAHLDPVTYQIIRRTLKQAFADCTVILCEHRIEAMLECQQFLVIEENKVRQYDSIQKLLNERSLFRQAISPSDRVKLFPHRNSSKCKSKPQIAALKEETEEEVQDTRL
Sequence of WT-CFTR (P13569 whole entry): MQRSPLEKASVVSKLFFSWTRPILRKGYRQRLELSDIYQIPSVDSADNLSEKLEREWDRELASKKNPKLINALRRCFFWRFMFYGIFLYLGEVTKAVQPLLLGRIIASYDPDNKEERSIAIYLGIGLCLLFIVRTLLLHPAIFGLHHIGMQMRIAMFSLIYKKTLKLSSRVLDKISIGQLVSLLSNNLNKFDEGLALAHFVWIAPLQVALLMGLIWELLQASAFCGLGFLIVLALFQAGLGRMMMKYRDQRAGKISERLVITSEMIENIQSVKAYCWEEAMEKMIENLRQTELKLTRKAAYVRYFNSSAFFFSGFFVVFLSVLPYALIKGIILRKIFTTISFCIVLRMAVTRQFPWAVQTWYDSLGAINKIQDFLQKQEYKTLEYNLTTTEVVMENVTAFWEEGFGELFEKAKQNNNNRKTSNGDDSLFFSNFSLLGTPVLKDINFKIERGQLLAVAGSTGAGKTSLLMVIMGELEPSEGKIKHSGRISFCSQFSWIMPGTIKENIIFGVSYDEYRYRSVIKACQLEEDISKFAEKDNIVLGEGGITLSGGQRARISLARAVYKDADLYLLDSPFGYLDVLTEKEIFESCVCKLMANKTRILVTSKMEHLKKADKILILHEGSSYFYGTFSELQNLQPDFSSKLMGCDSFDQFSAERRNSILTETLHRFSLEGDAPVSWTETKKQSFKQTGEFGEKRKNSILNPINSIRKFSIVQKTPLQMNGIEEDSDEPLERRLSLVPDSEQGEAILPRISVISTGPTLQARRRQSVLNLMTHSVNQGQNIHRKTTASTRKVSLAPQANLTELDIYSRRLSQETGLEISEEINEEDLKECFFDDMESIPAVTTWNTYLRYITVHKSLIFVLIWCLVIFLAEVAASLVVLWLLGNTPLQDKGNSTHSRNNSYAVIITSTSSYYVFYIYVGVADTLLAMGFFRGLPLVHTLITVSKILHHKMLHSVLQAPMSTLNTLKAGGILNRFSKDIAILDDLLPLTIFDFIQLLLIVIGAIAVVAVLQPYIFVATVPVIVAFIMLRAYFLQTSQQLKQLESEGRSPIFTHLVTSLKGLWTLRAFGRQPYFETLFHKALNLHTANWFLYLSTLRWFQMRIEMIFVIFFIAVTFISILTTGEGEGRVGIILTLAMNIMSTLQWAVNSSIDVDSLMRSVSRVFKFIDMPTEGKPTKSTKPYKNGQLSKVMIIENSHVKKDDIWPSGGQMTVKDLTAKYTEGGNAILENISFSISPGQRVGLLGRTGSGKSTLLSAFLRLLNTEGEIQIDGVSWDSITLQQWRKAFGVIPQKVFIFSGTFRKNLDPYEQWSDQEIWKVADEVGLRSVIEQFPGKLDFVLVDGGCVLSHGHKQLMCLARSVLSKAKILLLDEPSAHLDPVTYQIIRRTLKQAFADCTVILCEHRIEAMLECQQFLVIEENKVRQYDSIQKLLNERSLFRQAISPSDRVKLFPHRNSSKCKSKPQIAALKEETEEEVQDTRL
T1 sequence (P13569 whole entry): as above

Take `COc1cc(-c2oc3cc(O)cc(O)c3c(=O)c2O)ccc1O` [isorhamnetin]: the “CFTR chloride channel activity (YFP quenching)” value on human CFTR was “significantly increased”. For the same compound, the “intracellular cAMP levels” value with intracellular cAMP is “did not alter”. Further, on human ANO1, the “ANO1 function (apical membrane current)” value is “did not alter”. For the same compound, the “ΔF508-CFTR chloride current activated by 20 μM forskolin” value on human ΔF508-CFTR (30 μM isorhamnetin) is on record as “doubled”. Further, the “forskolin-induced ΔF508-CFTR chloride current” value at human ΔF508-CFTR (dose-dependent, ΔF508-CFTR rescued at 27 °C for 24 h) is listed as “strongly potentiated”. Besides, the “ocular surface PD” value at CFTR is on record as “significantly hyperpolarized”. Further, in the assay with CD-1 mice, the tear volume result is on record as “significantly increased”. This compound also had an EC50 at WT-CFTR of 6.6 ± 1.1 µM. Further, the “CFTR activation (apical membrane current)” value on WT-CFTR (30 μM, current not further increased by 20 μM forskolin) was “fully activated”.
